Values of other authors in patent US12274730B2, “Flavonoid compositions and methods of use” (Berkley, LLC, priority 2015, dated 2025).

Settings: general statement, no test described

- Half-life: 3.5 to 11 h
SMILES: O=c1c(O)c(-c2ccc(O)c(O)c2)oc2cc(O)cc(O)c12 [Quercetin, 2-(3,4-dihydroxyphenyl)-3,5,7-trihydroxy-4H-chromen-4-one]
